Data: BindingDB's records for doi:10.1016/j.bmcl.2004.08.063 (Abbott Laboratories, 2004)

Columns and labels:
[1] = biological target: T1, Tyrosine-protein phosphatase non-receptor type 2 (Homo sapiens, UniProt P17706); assay: PTP1B and TCPTP Inhibition Assay; settings: pH 7.5; 22 °C
T1 sequence (P17706 whole entry): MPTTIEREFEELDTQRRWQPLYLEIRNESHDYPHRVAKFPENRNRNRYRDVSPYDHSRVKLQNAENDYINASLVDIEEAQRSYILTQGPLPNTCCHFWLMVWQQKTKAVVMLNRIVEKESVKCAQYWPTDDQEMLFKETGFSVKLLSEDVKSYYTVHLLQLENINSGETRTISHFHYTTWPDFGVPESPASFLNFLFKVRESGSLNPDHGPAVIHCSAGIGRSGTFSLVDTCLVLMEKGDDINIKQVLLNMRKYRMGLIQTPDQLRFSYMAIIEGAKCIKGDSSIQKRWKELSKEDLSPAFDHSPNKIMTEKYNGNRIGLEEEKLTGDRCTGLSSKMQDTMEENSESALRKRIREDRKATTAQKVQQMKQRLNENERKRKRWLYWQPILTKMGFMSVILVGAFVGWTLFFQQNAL
Method: (§1) For each concentration of test compound or DMSO control, the initial rates were used to fit the rectangular hyperbola of Michaelis-Menten by nonlinear regression analysis. The ratio of the apparent Km/Vmax vs inhibitor concentration was plotted, and the Ki was calculated by linear regression to be the negative X-intercept.

[2] = biological target: T2, Tyrosine-protein phosphatase non-receptor type 1 [1-298] (Homo sapiens, UniProt P18031); assay: PTP1B and TCPTP Inhibition Assay; settings: pH 7.5; 22 °C
T2 construct: 1-298
T2 sequence (P18031 whole entry): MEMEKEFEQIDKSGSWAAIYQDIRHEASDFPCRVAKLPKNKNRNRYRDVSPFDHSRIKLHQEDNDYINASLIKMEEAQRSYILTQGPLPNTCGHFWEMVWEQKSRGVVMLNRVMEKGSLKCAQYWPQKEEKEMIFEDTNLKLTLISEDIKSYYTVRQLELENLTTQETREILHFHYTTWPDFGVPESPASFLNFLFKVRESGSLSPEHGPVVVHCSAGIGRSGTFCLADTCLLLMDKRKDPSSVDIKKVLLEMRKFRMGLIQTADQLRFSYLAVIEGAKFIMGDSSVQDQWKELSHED
Method: as §1

Row | Ki [1] | Ki [2] | SMILES
1 | > 30 µM | – | COC(=O)c1c(O)cccc1OC/C=C/c1cccc(-c2onc(C(=O)O)c2N)c1 [4-amino-5-{3-[(1E)-3-[3-hydroxy-2-(methoxycarbonyl)phenoxy]prop-1-en-1-yl]phenyl}-1,2-oxazole-3-carboxylic acid]
2 | – | 23 µM | COC(=O)c1c(O)cccc1OCC1CC1c1cccc(-c2cc(C(=O)O)no2)c1 (configuration not stated) [5-(3-{2-[3-hydroxy-2-(methoxycarbonyl)phenoxymethyl]cyclopropyl}phenyl)-1,2-oxazole-3-carboxylic acid]
